From PubChem BioAssay (NCI)
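Interpolation was linear, between the two tested concentrations surrounding the appropriate level; five concentrations were tested over 48 hours in 96-well plates. GI50: concentration for 50% inhibition of growth. TGI is the concentration that stops growth completely.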

How the values were obtained:
Test in all cases: growth of human tumour cells (NCI), 48 h
[1] = test system: MALME-3M melanoma
[2] = test system: SF-268 CNS
[3] = test system: LOX IMVI melanoma
[4] = test system: NCI-H522 lung
[5] = test system: HOP-62 NSCLC
[6] = test system: K-562 leukemia
[7] = test system: 786-0 renal
[8] = test system: SNB-19 CNS
[9] = test system: HS 578T breast
[10] = test system: HCC-2998 colon

Structure (SMILES)	TGI [1] [µM]	TGI [2] [µM]	TGI [3] [µM]	TGI [4] [µM]	TGI [5] [µM]	TGI [6] [µM]	TGI [7] [µM]	GI50 [2] [µM]	GI50 [3] [µM]	GI50 [4] [µM]	GI50 [8] [µM]	TGI [8] [µM]	GI50 [9] [µM]	TGI [9] [µM]	GI50 [6] [µM]	GI50 [7] [µM]	TGI [10] [µM]	GI50 [10] [µM]	GI50 [5] [µM]	GI50 [1] [µM]
Brc1ccccc1C1SCc2nc3ccccc3n21 (stereo not given)	48	66.1	26	33.9	39.2	> 100	29.4	–	–	–	–	–	–	–	–	–	–	–	–	–
CC(=O)[C@@]12O[C@@H]1CC1C3CCC4=CC(O)CCC4(C)C3CCC12C (stereo not given in full)	–	> 100	> 100	> 100	–	> 100	> 100	83.5	44.4	> 100	38.8	> 100	27.9	90.2	55.5	> 100	–	–	–	–
O=c1cc(-c2ccccc2)oc2cc(OCCCOc3ccc4c(=O)cc(-c5ccccc5)oc4c3)ccc12	> 100	–	> 100	> 100	> 100	> 100	> 100	–	–	–	–	> 100	–	–	–	–	> 100	–	–	–
Cc1c2c(nn1-c1ccc(S(=O)(=O)/N=C3\SCCC(=O)N3c3ccccc3)cc1)-c1ccccc1CC2	–	> 100	> 100	> 100	> 100	> 100	> 100	35	> 100	91.4	> 100	> 100	–	–	> 100	81.7	> 100	> 100	46.4	–
COc1ncnc(NS(=O)(=O)c2ccc(N=C3C(=O)N(CN4CCN(c5c(F)cc6c(=O)c(C(=O)O)cn(C7CC7)c6c5OC)CC4C)c4ccc(Cl)cc43)cc2)c1OC (stereo not given)	–	> 50	15.6	> 50	> 50	> 50	> 50	10.7	6.89	> 50	> 50	> 50	23.1	> 50	20.5	21.4	–	–	23.4	–
CCOC(=O)NC(=O)c1cn(CCCO)c(=O)[nH]c1=O	> 100	> 100	> 100	–	> 100	> 100	> 100	–	–	–	–	> 100	–	–	–	–	> 100	–	–	–
CCOC(=O)CC(=O)ON(C)C(C)=O	> 100	> 100	> 100	> 100	> 100	> 100	> 100	–	–	–	–	> 100	–	–	–	–	> 100	–	–	–
COc1ccc([C@H]2[C@@H](F)C(=O)N2c2cc(OC)c(OC)c(OC)c2)cc1F	–	> 100	> 100	> 100	> 100	> 100	15.1	0.324	0.0904	0.0383	0.302	> 100	0.295	> 100	0.0383	0.0462	> 100	0.406	0.511	–
Cc1ccc(NC(=O)c2cc3cc(N=Nc4ccccc4C(=O)O)ccc3oc2=O)cc1	> 100	–	> 100	> 100	> 100	> 100	> 100	–	–	–	–	> 100	–	–	–	–	–	–	–	–
CCOC(=O)C(=C=C=C(c1ccccc1)c1ccccc1)C(=O)OCC	40.2	63.5	36.6	–	45.2	28.5	32	–	–	–	–	55.4	–	–	–	–	61.4	–	–	–
ClCc1cccc(Cn2cnc3ncnc(Cl)c32)c1	–	3.5	14	23.9	3.99	48.1	4.09	1.66	3.11	6.19	–	–	18.2	42.3	16.6	2.06	3.25	1.68	2.17	–
Cc1ccc(S(=O)(=O)Nc2ccccc2C(=O)c2ccc(C)c(C)c2)cc1	> 100	> 100	> 100	> 100	> 100	–	> 100	–	–	–	–	> 100	–	> 100	–	–	–	–	–	–
CCN1c2ccccc2C(C(SC)S(=O)(=O)c2ccc(C)cc2)c2c1[nH]c(=O)n(C)c2=O (stereo not given)	> 100	> 100	> 100	> 100	> 100	> 100	> 100	–	–	–	–	> 100	–	–	–	–	> 100	–	–	–
Cc1cc(-c2ccc3nc(C4CCOCC4)n(CCOC(F)(F)F)c3c2)cn(C)c1=O	5.16	80.2	1.06	9.31	–	–	–	1.65	–	0.244	–	–	–	0.888	0.507	1.03	–	–	–	–
CCc1cc(Cc2cc(CC)c(NC(=O)C(=O)Cc3ccccn3)c(CC)c2Cl)c(Cl)c(CC)c1NC(=O)C(=O)Cc1ccccn1	> 100	> 100	> 100	–	> 100	> 100	> 100	–	–	–	–	> 100	–	–	–	–	> 100	–	–	–
COC(OC)C(C)CC(=O)N(C)C (stereo not given)	–	> 100	> 100	–	> 100	> 100	> 100	–	–	–	–	> 100	–	–	–	–	> 100	–	–	–
Cc1cccc(NC(=O)Cn2cnc3sc(C(=O)OC(C)C)c(C)c3c2=O)c1	–	> 50	35.9	44.6	35.9	> 50	> 50	18.8	11.2	12.3	14.1	38.6	16.5	> 50	> 50	32.9	–	–	13.7	–
OCCCCCNCc1cc2cc3c(cc2c2cc(OCc4ccccc4)ccc12)OCO3	3.1	–	–	–	3.23	4.11	2.96	–	–	–	–	–	1.79	3.56	1.68	1.61	–	–	1.72	1.66
Clc1ccc(C(c2ccc(Cl)cc2)c2ccccn2)cc1	41.2	69.7	30.4	48.6	–	55.6	30.6	–	–	–	–	51.5	–	–	–	–	30.9	–	–	–
CC(=O)OC1COC(n2ccc3cc(Br)c([N+](=O)[O-])cc32)C(OC(C)=O)C1OC(C)=O (stereo not given)	72.5	> 100	40.7	–	92.2	> 100	97.9	–	–	–	–	> 100	–	–	–	–	59.6	–	–	–
